Results published in patent US20070032418A1, “Small-molecule inhibitors of angiogenin and rnases and in vivo and in vitro methods of using same” (Ambion, Inc, priority 2003, published 2007).
Like-named read-outs stand apart in the source and are kept apart here.

Molecular target: angiogenin (ANG) (Homo sapiens, UniProt P03950)
Assay: Inhibition of ANG ribonucleolytic activity, HPLC assay of oligonucleotide cleavage
Format: biochemical
Procedure: Reaction mixtures with and without test compounds were chromatographed on a Mono Q anion-exchange column with an NaCl gradient in 10 mM Tris, pH 8. […] This information was used to calculate kcat/Km values, which were then fitted to the equation (kcat/Km)i=(kcat/Km)0/[…], where (kcat/Km)i and (kcat/Km)0 are defined as the values in the presence and absence of inhibitor, respectively, and [I] is defined as the inhibitor concentration. At least four concentrations (in a range of about 10 μM-above 100 μM) were used in the final hit confirmation in order to distinguish all true hits.
Chemical structures of selected compounds are shown in these Tables and in FIGS. 4 and 5.

[1] = inhibition of ANG-catalyzed cleavage of an RNA oligonucleotide, 20 mM Hepes, 100 mM NaCl, 37° C., read-out: KI
[2] = inhibition of ANG-catalyzed cleavage of an RNA oligonucleotide, 20 mM Hepes, 100 mM NaCl, 37° C.

angiogenin (ANG), sequence (P03950 25-147): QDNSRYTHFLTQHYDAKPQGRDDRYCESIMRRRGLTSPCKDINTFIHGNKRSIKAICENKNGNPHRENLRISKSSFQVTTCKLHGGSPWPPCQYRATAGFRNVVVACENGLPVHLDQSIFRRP

## COc1ccc(/C=N/c2c(O)ccc3ccccc23)cc1OC [NCI-17061]
read-out: KI
  Ki: 900 µM

## COc1cc(-c2ccc(/N=N/c3ccc4c(S(=O)(=O)O)cc(S(=O)(=O)O)c(N)c4c3O)c(OC)c2)ccc1/N=N/c1ccc2c(S(=O)(=O)O)cc(S(=O)(=O)O)c(N)c2c1O [NCI-9617, Chicago Sky Blue 6B]
read-out: KI
  Ki: 5 µM

## CC(=O)Nc1ccc(/N=N/c2ccc3cc(S(=O)(=O)O)cc(NC(C)=O)c3c2O)cc1 [NCI-73416]
read-out: KI
  Ki: 77 µM

## O=S(=O)(O)c1cc(/N=N/c2c(O)ccc3ccccc23)c2c(O)c(/N=N/c3ccc(S(=O)(=O)O)c4ccccc34)c(S(=O)(=O)O)cc2c1 [NCI-8674]
read-out: KI
  Ki: 158 µM

## O=S(=O)(O)c1cc(S(=O)(=O)O)c2c(/N=N/c3ccccc3)c(O)ccc2c1 [Orange G]
read-out: KI
  Ki: 83 µM

## CC(=O)Nc1ccc(N=Nc2c(S(=O)(=O)O)cc3cc(S(=O)(=O)O)cc(NC(C)=O)c3c2O)cc1 [acid violet 7]
[1]
  Ki: 71 µM

## O=S(=O)(O)c1ccc(/N=N/c2ccc(/N=N/c3c(O)ccc4cc(S(=O)(=O)O)ccc34)cc2)cc1 [NCI-58047]
read-out: KI
  Ki: 36 µM

## O=C(O)c1cc(O)c(O)c(OC(=O)c2cc(O)c(O)c(O)c2CNc2ccc3cc(S(=O)(=O)O)cc(S(=O)(=O)O)c3c2)c1 [NCI-42067]
read-out: KI
  Ki: 245 µM

## Cc1nn(-c2cc(S(=O)(=O)O)ccc2Cl)c(O)c1/N=N/c1c(NC(=O)c2ccc(N)cc2)ccc2cc(S(=O)(=O)O)ccc12 [NCI-75963]
read-out: KI
  Ki: 129 µM

## Nc1ccc2cc(S(=O)(=O)O)cc(O)c2c1/N=N/c1ccc(-c2ccc(/N=N/c3c(S(=O)(=O)O)cc4cc(S(=O)(=O)O)c(/N=N/c5ccc([N+](=O)[O-])cc5)c(N)c4c3O)cc2)cc1 [NCI-65855]
read-out: KI
  Ki: 129 µM

## COc1cc(/N=N/c2cc(S(=O)(=O)O)cc3cc(S(=O)(=O)O)cc(O)c23)c(C)cc1/N=N/c1c(S(=O)(=O)O)cc2cc(Nc3ccccc3)ccc2c1O [NCI-47755]
read-out: KI
  Ki: 84 µM

## Cc1cc(S(=O)(=O)O)ccc1N=c1ccc2c(-c3ccccc3C(=O)O)c3ccc(Nc4ccccc4C)cc3oc-2c1 [violamine R]
read-out: KI
  Ki: 107 µM

## O=C(Nc1ccc(/C=C/c2ccc(NC(=O)c3cc(S(=O)(=O)O)c4ccncc4c3O)cc2S(=O)(=O)O)c(S(=O)(=O)O)c1)c1cc(S(=O)(=O)O)c2ccncc2c1O [NCI-665534-P]
read-out: KI
  Ki: 5 µM

## O=S(=O)(O)c1cc(S(=O)(=O)O)c2c(/N=N/c3ccc(S(=O)(=O)O)c4ccccc34)c(O)ccc2c1 [new coccine]
read-out: KI
  Ki: 69 µM

## O=C(O)c1c(O)ccc(/N=N/c2ccc(/N=N/c3ccc4c(S(=O)(=O)O)cccc4c3O)c3ccccc23)c1O [NCI-47735]
read-out: KI
  Ki: 85 µM

## COc1cc(/N=N/c2ccc(S(=O)(=O)O)cc2)ccc1/N=N/c1c(O)ccc2cc(S(=O)(=O)O)ccc12 [NCI-65553]
read-out: KI
  Ki: 29 µM

## Nc1c(/N=N/c2ccc(-c3ccc(/N=N/c4c(O)ccc5cc(S(=O)(=O)O)cc(S(=O)(=O)O)c45)cc3)cc2)c(S(=O)(=O)O)cc2cc(S(=O)(=O)O)c(/N=N/c3ccccc3)c(O)c12 [NCI-79741]
read-out: KI
  Ki: 23 µM

## Nc1ccc2cc(S(=O)(=O)O)c(/N=N/c3ccc(-c4ccc(/N=N/c5c(S(=O)(=O)O)cc6cc(S(=O)(=O)O)c(/N=N/c7cccc([N+](=O)[O-])c7)c(N)c6c5O)cc4)cc3)c(O)c2c1 [NCI-79744]
read-out: KI
  Ki: 244 µM

## Nc1ccc(C(=O)Nc2ccc(C(=O)Nc3ccc4c(O)cc(S(=O)(=O)O)cc4c3)cc2)cc1 [NCI-1741]
read-out: KI
  Ki: ~600 µM

## Nc1ccc2cc(S(=O)(=O)O)cc(O)c2c1N=Nc1ccccc1S(=O)(=O)c1ccccc1 [S321443]
read-out: KI
  Ki: > 500 µM

## Nc1ccc2cc(S(=O)(=O)O)cc(O)c2c1/N=N/c1ccc(-c2ccc(/N=N/c3c(N)ccc4cc(S(=O)(=O)O)cc(O)c34)cc2)cc1 [NCI-75778]
read-out: KI
  Ki: 171 µM

## O=[N+]([O-])c1ccc(/N=N/c2c(O)ccc3cc(S(=O)(=O)O)ccc23)cc1 [NCI-45538]
read-out: KI
  Ki: 305 µM

## O=S(=O)(O)c1ccccc1/N=N/c1c(S(=O)(=O)O)cc2cc(S(=O)(=O)O)c(/N=N/c3ccccc3S(=O)(=O)O)c(O)c2c1O [NCI-174066]
read-out: KI
  Ki: 234 µM

## O=C(Nc1ccc2cc(S(=O)(=O)O)ccc2c1)c1ccc(/N=N/c2cc(S(=O)(=O)O)c3ccccc3c2O)cc1 [NCI-45608]
read-out: KI
  Ki: 75 µM

## Nc1ccc2cc(S(=O)(=O)O)cc(O)c2c1N=Nc1ccc(-c2ccc(N=Nc3cc(S(=O)(=O)O)c4ccccc4c3N)cc2)cc1 [direct red 13]
read-out: KI
  Ki: 112 µM

## O=C(c1ccc(C(=O)O)c(NC(=O)c2cccc3ccccc23)c1)c1ccc(C(=O)O)c(NC(=O)c2cccc3ccccc23)c1 [CB-181431, 4,4′-dicarboxy-3,3′-bis(naphthylamido)-diphenylmethanone]
20 mM Hepes, 100 mM NaCl, pH 7.0, 37° C., read-out: Ki for inhibition of the ribonucleolytic activity of angiogenin
  Ki: 41 µM

## eriochrome black T
[1]
  Ki: 50 µM

## Nc1c(OCC(=O)O)ccc2cc(S(=O)(=O)O)ccc12 [NCI-16163]
[2]
  KI: in- active at 75 uM

## O=[N+]([O-])c1ccc(/N=N/c2c(S(=O)(=O)O)cc3cc(S(=O)(=O)O)ccc3c2O)c([N+](=O)[O-])c1 [NCI-9360]
read-out: KI
  Ki: 307 µM

## Nc1c(/N=N/c2cc(Cl)ccc2Cl)c(S(=O)(=O)O)cc2cc(S(=O)(=O)O)c(/N=N/c3ccc(Sc4ccc(/N=N/c5ccc(O)cc5)cc4)cc3)c(O)c12 [NCI-75661]
read-out: KI
  Ki: 76 µM

## Nc1cccc(C(=O)Nc2ccc3c(O)cc(S(=O)(=O)O)cc3c2)c1 [NCI-1743]
[2]
  KI: in- active at 75 uM

## O=C(O)c1cc(/N=N/c2ccc(/N=N/c3c(Nc4ccccc4)ccc4cc(S(=O)(=O)O)cc(O)c34)cc2)ccc1O [NCI-45612]
read-out: KI
  Ki: 158 µM

## O=C(O)CC(NC(=O)CP(=O)(O)O)C(=O)O (stereo not shown) [NCI-224131]
  Ki: > 500 µM

## O=C(O)c1ccccc1/N=N/c1c(O)c(S(=O)(=O)O)cc2cc(S(=O)(=O)O)ccc12 [NCI-12455]
read-out: KI
  Ki: 239 µM

## O=S(=O)(O)c1ccc(/N=N/c2c(O)ccc3cc(S(=O)(=O)O)ccc23)cc1 [sunset yellow]
read-out: KI
  Ki: 85 µM

## Nc1ccc(C(=O)Nc2cc(S(=O)(=O)O)cc3cccc(O)c23)cc1 [NCI-37176]
read-out: KI
  Ki: 104 µM

## Cc1cc(-c2ccc(/N=N/c3c(N)c(S(=O)(=O)O)cc4cc(S(=O)(=O)O)ccc34)c(C)c2)ccc1/N=N/c1cc(S(=O)(=O)O)c2ccccc2c1N [NCI-7815]
read-out: KI
  Ki: 14 µM

## O=S(=O)(O)c1cc(O)c2c(O)c(N=Nc3c(O)c(S(=O)(=O)O)cc4cc(S(=O)(=O)O)cc(O)c34)c(S(=O)(=O)O)cc2c1
[1]
  Ki: > 1000 µM

## O=[N+]([O-])c1ccc(/N=N/c2c(O)c(/N=N/c3cc([N+](=O)[O-])cc([N+](=O)[O-])c3O)cc(/N=N/c3cc(S(=O)(=O)O)cc4cc(S(=O)(=O)O)cc(O)c34)c2O)cc1 [NCI-47740]
read-out: KI
  Ki: 15 µM

## Cc1ccc(/N=N/c2c(N)ccc3cc(S(=O)(=O)O)ccc23)c(C)c1 [NCI-45569]
read-out: KI
  Ki: 194 µM

## O=S(=O)(O)c1cc(O)c2ccc(Nc3ccc4c(O)cc(S(=O)(=O)O)cc4c3)cc2c1 [NCI-1698]
read-out: KI
  Ki: 172 µM

## Cc1cc(-c2ccc(/N=N/c3c(N)c(S(=O)(=O)O)cc4cc(S(=O)(=O)O)ccc34)c(C)c2)ccc1/N=N/c1c(N)ccc2cc(S(=O)(=O)O)ccc12 [NCI-16224, direct red 34]
read-out: KI
  Ki: 5.5 µM

## O=C(Nc1ccc2cc(S(=O)(=O)O)ccc2c1)c1ccc([N+](=O)[O-])cc1 [NCI-37169]
read-out: KI
  Ki: 950 µM

## O=S(=O)(O)c1ccc(/N=N/c2ccc(/N=N/c3c(O)ccc4cc(S(=O)(=O)O)cc(S(=O)(=O)O)c34)cc2)cc1 [NCI-65546]
read-out: KI
  Ki: 129 µM

## O=S(=O)(O)c1ccc2c(/N=N/c3ccc(S(=O)(=O)O)c4ccccc34)c(O)c(S(=O)(=O)O)cc2c1 [Amaranth]
read-out: KI
  Ki: 60 µM

## Cc1cc(-c2ccc(/N=N/c3c(N)ccc4cc(S(=O)(=O)O)ccc34)c(C)c2)ccc1N [prBZBP]
read-out: KI
  Ki: 20 µM
